In the NIST ThermoML archive (doi:10.1016/j.tca.2016.04.001):
± gives the expanded uncertainty stated by the source.

What was measured:
[1] = 87 kPa, Liquid, Vibrating tube method
[2] = xn = mol fraction of the nth substance listed; details: 87 kPa, Liquid, Vibrating tube method

OC(CCl)CCl [1,3-dichloro-2-propanol]
[1]
Details | mass density [kg/m3]
293.15 K | 1362.66 ± 1.1
298.15 K | 1356.74 ± 1.1
303.15 K | 1350.72 ± 1.1
308.15 K | 1344.71 ± 1.1
313.15 K | 1338.65 ± 1.1

OCc1ccccc1 [benzenemethanol]
[1]
Details | mass density [kg/m3]
293.15 K | 1045.21 ± 1
298.15 K | 1041.38 ± 1
303.15 K | 1037.5 ± 1
308.15 K | 1033.63 ± 1
313.15 K | 1029.71 ± 1

OCc1ccccc1 [benzenemethanol] + C=COC(C)=O
[2], x1 = 1
Details | mass density [kg/m3]
293.15 K | 1045.21 ± 1
298.15 K | 1041.38 ± 1
303.15 K | 1037.5 ± 1
308.15 K | 1033.63 ± 1
313.15 K | 1029.71 ± 1

OCc1ccccc1 [benzenemethanol] + CC(=O)OC(C)(C)C
[2], x1 = 1
Details | mass density [kg/m3]
293.15 K | 1045.21 ± 1
298.15 K | 1041.38 ± 1
303.15 K | 1037.5 ± 1
308.15 K | 1033.63 ± 1
313.15 K | 1029.71 ± 1

OCc1ccccc1 [benzenemethanol] + CCOC(C)=O
mass density [kg/m3], [2]
Details | 293.15 K | 298.15 K | 303.15 K | 308.15 K | 313.15 K
x1 = 0.0452 | 909.04 ± 1.5 | 903.11 ± 1.5 | 897.12 ± 1.5 | 891.1 ± 1.5 | 885.03 ± 1.6
x1 = 0.1047 | 919.57 ± 1.5 | 913.81 ± 1.5 | 908.02 ± 1.5 | 902.18 ± 1.5 | 896.3 ± 1.5
x1 = 0.2008 | 935.91 ± 1.4 | 930.43 ± 1.4 | 924.91 ± 1.4 | 919.36 ± 1.5 | 913.77 ± 1.5
x1 = 0.3043 | 952.73 ± 1.4 | 947.53 ± 1.4 | 942.29 ± 1.4 | 937.02 ± 1.4 | 931.72 ± 1.4
x1 = 0.4 | 967.5 ± 1.4 | 962.53 ± 1.4 | 957.53 ± 1.4 | 952.49 ± 1.4 | 947.43 ± 1.4
x1 = 0.5017 | 982.41 ± 1.3 | 977.66 ± 1.4 | 972.89 ± 1.4 | 968.08 ± 1.4 | 963.26 ± 1.4
x1 = 0.6006 | 996.27 ± 1.3 | 991.73 ± 1.3 | 987.15 ± 1.3 | 982.56 ± 1.3 | 977.95 ± 1.3
x1 = 0.7013 | 1009.5 ± 1.3 | 1005.14 ± 1.3 | 1000.77 ± 1.3 | 996.37 ± 1.3 | 991.97 ± 1.3
x1 = 0.8074 | 1023 ± 1.3 | 1018.86 ± 1.3 | 1014.67 ± 1.3 | 1010.47 ± 1.3 | 1006.26 ± 1.3
x1 = 0.9042 | 1034.66 ± 1.2 | 1030.64 ± 1.2 | 1026.67 ± 1.3 | 1022.63 ± 1.3 | 1018.59 ± 1.3
x1 = 0.9537 | 1040.08 ± 1.2 | 1036.17 ± 1.2 | 1032.23 ± 1.2 | 1028.28 ± 1.2 | 1024.32 ± 1.2
x1 = 1 | 1045.21 ± 1 | 1041.38 ± 1 | 1037.5 ± 1 | 1033.63 ± 1 | 1029.71 ± 1

CCOC(C)=O [ethyl acetate] + OC(CCl)CCl
[2], x2 = 0
Details | mass density [kg/m3]
293.15 K | 900.71 ± 1
298.15 K | 894.65 ± 1
303.15 K | 888.52 ± 1
308.15 K | 882.35 ± 1
313.15 K | 876.12 ± 1

CCOC(C)=O [ethyl acetate] + OCc1ccccc1
[2], x2 = 0
Details | mass density [kg/m3]
293.15 K | 900.71 ± 1
298.15 K | 894.65 ± 1
303.15 K | 888.52 ± 1
308.15 K | 882.35 ± 1
313.15 K | 876.12 ± 1

C=COC(C)=O [vinyl acetate] + OC(CCl)CCl
[2], x2 = 0
Details | mass density [kg/m3]
293.15 K | 932.41 ± 1
298.15 K | 926.01 ± 1
303.15 K | 919.56 ± 1
308.15 K | 913.07 ± 1
313.15 K | 906.52 ± 1

C=COC(C)=O [vinyl acetate] + OCc1ccccc1
mass density [kg/m3], [2]
Details | 293.15 K | 298.15 K | 303.15 K | 308.15 K | 313.15 K
x2 = 0 | 932.41 ± 1 | 926.01 ± 1 | 919.56 ± 1 | 913.07 ± 1 | 906.52 ± 1
x2 = 0.0504 | 940.17 ± 1.4 | 934.2 ± 1.4 | 928.1 ± 1.4 | 922 ± 1.5 | 915.06 ± 1.4
x2 = 0.0954 | 947.04 ± 1.3 | 941.4 ± 1.3 | 935.7 ± 1.3 | 930 ± 1.4 | 922.62 ± 1.4
x2 = 0.1987 | 961.08 ± 1.3 | 955.4 ± 1.3 | 949.66 ± 1.3 | 943.89 ± 1.3 | 938.08 ± 1.4
x2 = 0.2999 | 974.18 ± 1.3 | 968.88 ± 1.3 | 963.51 ± 1.3 | 958.06 ± 1.3 | 952.57 ± 1.3
x2 = 0.3947 | 985.63 ± 1.2 | 980.52 ± 1.2 | 975.38 ± 1.3 | 970.21 ± 1.3 | 965 ± 1.3
x2 = 0.5005 | 997.61 ± 1.2 | 992.77 ± 1.2 | 987.91 ± 1.2 | 983.01 ± 1.2 | 978.09 ± 1.3
x2 = 0.5991 | 1008.19 ± 1.2 | 1003.62 ± 1.2 | 998.97 ± 1.2 | 994.32 ± 1.2 | 989.64 ± 1.2
x2 = 0.7047 | 1019.12 ± 1.2 | 1014.77 ± 1.2 | 1010.36 ± 1.2 | 1005.95 ± 1.2 | 1001.51 ± 1.2
x2 = 0.8037 | 1028.4 ± 1.2 | 1024.23 ± 1.2 | 1020.02 ± 1.2 | 1015.85 ± 1.2 | 1011.55 ± 1.2
x2 = 0.9067 | 1037.37 ± 1.1 | 1033.39 ± 1.2 | 1029.37 ± 1.2 | 1025.33 ± 1.2 | 1021.27 ± 1.2
